According to ChEMBL document CHEMBL1201862, “PubChem BioAssay data set” (2004):
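Cultured in 96-well plates, cells were exposed to test compound for 48 hours across five concentrations. Abbreviation: GI50, concentration required for 50% inhibition of growth.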 The source made the active and inactive calls. Cut-off read from the data, not from the text of the source: active = GI50 up to about 1.1 µM and inactive = higher.

How the values were obtained:
Experiment in all cases: NCI tumour cell line growth inhibition, 48 h
786-0 = system: 786-0
A498 = system: A498
A549 = system: A549
ACHN = system: ACHN
BT-549 = system: BT-549
CAKI-1 = system: CAKI-1
CCRF-CEM = system: CCRF-CEM
COLO 205 = system: COLO 205
DU-145 = system: DU-145
EKVX = system: EKVX
HCC 2998 = system: HCC 2998
HCT-116 = system: HCT-116
HCT-15 = system: HCT-15
HL-60 = system: HL-60
HOP-62 = system: HOP-62
HOP-92 = system: HOP-92
HT-29 = system: HT-29
Hs-578T = system: Hs-578T
IGROV-1 = system: IGROV-1
K562 = system: K562
KM12 = system: KM12
LOX IMVI = system: LOX IMVI
M14 = system: M14
MCF7 = system: MCF7
MDA-MB-231 = system: MDA-MB-231
MDA-MB-435 = system: MDA-MB-435
MDA-N = system: MDA-N
MOLT-4 = system: MOLT-4
Malme-3M = system: Malme-3M
NCI-H226 = system: NCI-H226
NCI-H23 = system: NCI-H23
NCI-H460 = system: NCI-H460
NCI-H522 = system: NCI-H522
NCI/ADR-RES = system: NCI/ADR-RES
OVCAR-3 = system: OVCAR-3
OVCAR-4 = system: OVCAR-4
OVCAR-5 = system: OVCAR-5
OVCAR-8 = system: OVCAR-8
PC-3 = system: PC-3
RPMI-8226 = system: RPMI-8226
RXF 393 = system: RXF 393
SF-268 = system: SF-268
SF-295 = system: SF-295
SF-539 = system: SF-539
SK-MEL-28 = system: SK-MEL-28
SK-MEL-2 = system: SK-MEL-2
SK-MEL-5 = system: SK-MEL-5
SK-OV-3 = system: SK-OV-3
SN12C = system: SN12C
SNB-19 = system: SNB-19
SNB-75 = system: SNB-75
SR = system: SR
SW-620 = system: SW-620
T47D = system: T47D
TK-10 = system: TK-10
U-251 = system: U-251
UACC-257 = system: UACC-257
UACC-62 = system: UACC-62
UO-31 = system: UO-31

Measured: GI50

Cc1cc(NS(=O)(=O)c2ccc(NC(=O)c3ccc4nc5ccccc5c(Nc5ccc(S(=O)(=O)N=C(N)N)cc5)c4c3)cc2)no1
inactive: 786-0 15.2 µM | A498 19.5 µM | A549 16.9 µM | ACHN 13.6 µM | BT-549 20.6 µM | CAKI-1 18.9 µM | CCRF-CEM 11.2 µM | COLO 205 18.8 µM | DU-145 17.1 µM | EKVX 16.4 µM | HCC 2998 16 µM | HCT-116 17.3 µM | HL-60 17.5 µM | HOP-62 17.5 µM | HOP-92 14.7 µM | HT-29 21.4 µM | Hs-578T 20 µM | IGROV-1 16.2 µM | K562 10.6 µM | KM12 17.1 µM | LOX IMVI 9.46 µM | M14 15.1 µM | MCF7 19.8 µM | MDA-MB-231 14.5 µM | MDA-MB-435 19.9 µM | MDA-N 19.5 µM | MOLT-4 17.1 µM | Malme-3M 15.6 µM | NCI-H226 14.2 µM | NCI-H23 18.8 µM | NCI-H460 17.4 µM | NCI-H522 17.1 µM | NCI/ADR-RES 25.2 µM | OVCAR-3 17.7 µM | OVCAR-4 14.3 µM | OVCAR-5 17.5 µM | OVCAR-8 18.2 µM | PC-3 16.9 µM | RPMI-8226 23.7 µM | RXF 393 15.3 µM | SF-268 19 µM | SF-295 16.9 µM | SF-539 20.8 µM | SK-MEL-28 18.2 µM | SK-MEL-2 16.5 µM | SK-MEL-5 16.2 µM | SK-OV-3 23.3 µM | SN12C 17 µM | SNB-19 29 µM | SNB-75 18.6 µM | SR 18.3 µM | SW-620 20.8 µM | T47D 14.6 µM | TK-10 25.5 µM | U-251 16.2 µM | UACC-257 26.2 µM | UACC-62 21.7 µM | UO-31 17.2 µM
15.4 µM: HCT-15

O=C(CNC(=O)OCc1ccccc1)NCCCCC(NC(=O)OCc1ccccc1)C(=O)O (stereo not drawn)
> 100 µM: HCT-15
inactive: 786-0 > 100 µM | A498 > 100 µM | A549 > 100 µM | ACHN > 100 µM | BT-549 > 100 µM | CAKI-1 > 100 µM | CCRF-CEM > 100 µM | COLO 205 > 100 µM | DU-145 > 100 µM | EKVX > 100 µM | HCC 2998 > 100 µM | HCT-116 > 100 µM | HL-60 > 100 µM | HOP-62 > 100 µM | HOP-92 > 100 µM | HT-29 > 100 µM | Hs-578T > 100 µM | IGROV-1 > 100 µM | K562 > 100 µM | KM12 > 100 µM | LOX IMVI > 100 µM | M14 > 100 µM | MCF7 > 100 µM | MDA-MB-231 > 100 µM | MDA-MB-435 > 100 µM | MDA-N > 100 µM | MOLT-4 > 100 µM | Malme-3M > 100 µM | NCI-H226 > 100 µM | NCI-H23 > 100 µM | NCI-H460 > 100 µM | NCI-H522 > 100 µM | NCI/ADR-RES > 100 µM | OVCAR-3 > 100 µM | OVCAR-4 > 100 µM | OVCAR-5 > 100 µM | OVCAR-8 > 100 µM | PC-3 > 100 µM | RPMI-8226 > 100 µM | RXF 393 > 100 µM | SF-268 > 100 µM | SF-295 > 100 µM | SF-539 > 100 µM | SK-MEL-28 > 100 µM | SK-MEL-2 > 100 µM | SK-MEL-5 > 100 µM | SK-OV-3 > 100 µM | SN12C > 100 µM | SNB-19 > 100 µM | SNB-75 > 100 µM | SR > 100 µM | SW-620 > 100 µM | T47D > 100 µM | TK-10 > 100 µM | U-251 > 100 µM | UACC-257 > 100 µM | UACC-62 > 100 µM | UO-31 > 100 µM
